# pIC50: −log10 of the molar value. Calls of active or inactive are those of the source. No rule for the calls is given here.
# System: M. tuberculosis H37Rv growth inhibition with meropenem
# Assay: dose response, H37Rv, with and without meropenem (AID 434987);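 also: growth over 7 days at 37 °C before Alamar Blue read on day 9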
# [1] = M. tuberculosis H37Rv growth inhibition, measured here: IC50 without meropenem
# [2] = M. tuberculosis H37Rv growth inhibition, measured here: IC90 without meropenem
# [3] = measured here: IC90 with meropenem
SMILES,IC50,pIC50 [1],IC90 [2],IC90 [3],pIC50
C/C(=N/NC(=O)c1ccc(Cl)s1)c1ccc(NC(=O)COc2ccc(Cl)cc2)cc1,> 100 µM (inactive),< 4.00,> 100 µM,> 100 µM,–
O=C1COc2ccc(C(=O)CCl)cc2N1,25.7 µM (inactive),4.61,27 µM,44.4 µM,–
Cn1c(/C=C/c2ccc(Cl)cc2)c([N+](=O)[O-])c(=O)n(C)c1=O,> 100 µM (inactive),< 4.00,> 100 µM,> 100 µM,–
CCOCC(=O)N1CCN(c2ccc(F)cc2)CC1,–,4.07,> 100 µM,> 100 µM,4.47
O=c1c2cc(Cl)ccc2[nH]c(=S)n1Cc1cccs1,–,4.69,> 50 µM,13.2 µM,5.24
C/C(=N\NC(=O)c1ccncc1)c1c(O)n(-c2ccccc2)c(=O)[nH]c1=O,2.81 µM (inactive),5.24,> 100 µM,3.94 µM,–
O=C(NCc1ccco1)c1cc2n(n1)C(C(F)(F)F)CC(c1ccc(F)cc1)N2 (configuration not stated),> 100 µM (inactive),< 4.00,> 100 µM,> 100 µM,–
CCc1cc2c(=O)oc(-c3ccccc3F)nc2s1,> 100 µM (inactive),< 4.00,> 100 µM,> 100 µM,–
COCc1nnc(NC(=O)c2ccc(S(=O)(=O)N(C)c3ccccc3)cc2)o1,17.4 µM (inactive),4.39,> 100 µM,> 100 µM,–
O=C(O)CSc1ncnc2c1sc1nc(-c3ccccc3)c3c(c12)CCC3,–,4.21,87.4 µM,14.2 µM,4.91
O=c1[nH]c(=S)[nH]c(O)c1N=Nc1ccc2c(c1)OCCO2,> 100 µM (inactive),< 4.00,> 100 µM,> 100 µM,–
C=C(C)C1Cc2c(C)nn(-c3cccc4ccccc34)c2C1 (configuration not stated),–,4.41,58.5 µM,47.4 µM,4.81
O=C1C=C2C=C[C@@H]3CC2(O1)[C@H]1CCCCN31,78.1 µM (inactive),< 4.00,> 100 µM,> 100 µM,–
COc1cc(SC)ccc1C(=O)Nc1ccc(C)cc1C,–,< 4.00,> 100 µM,> 100 µM,4.42
O=C(CCSc1ccccc1)Nc1nc2c(s1)CCCC2,> 100 µM (inactive),< 4.00,> 100 µM,> 100 µM,–
COc1ccc(Nc2cc(C(=O)NCc3ccco3)c3ccccc3n2)c(OC)c1,> 100 µM (inactive),< 4.00,> 100 µM,> 100 µM,–
CC(=O)NC(=S)Nc1ccc(NC(=O)c2cccnc2Cl)cc1,> 100 µM (inactive),< 4.00,> 100 µM,> 100 µM,–
COc1cccc(NC(=O)c2cc(-c3cccnc3)nc3c(Cl)cccc23)c1,> 100 µM (inactive),< 4.00,> 100 µM,> 100 µM,–
O=C(/C=C/c1ccc2c(c1)OCO2)Nc1nc2ccccc2s1,> 100 µM (inactive),< 4.00,> 100 µM,> 100 µM,–
O=C(N/N=C/c1c(O)n(Cc2ccc(F)cc2)c(=S)[nH]c1=O)c1ccncc1,7.75 µM (inactive),4.94,12.9 µM,9.8 µM,–

SMILES,IC50,pIC50 [1],IC90 [2],IC90 [3],pIC50
Cc1cc(C)c(-c2c(O)c3ccccc3n(C)c2=O)c(C)c1,–,4.31,> 100 µM,42.2 µM,5.03
O=C(Oc1oc(-c2ccco2)nc1C=Nc1ccc(Cl)cc1)c1ccco1,–,< 4.00,> 100 µM,> 100 µM,4.82
O=C(CCN1CCOCC1)c1ccc(N2CCCCC2)cc1,14 µM (inactive),4.56,37.3 µM,72.7 µM,–
CNC(=S)N/N=C1\C(=O)c2cccc3cccc1c23,–,< 4.00,> 100 µM,> 100 µM,4.70
CCOC(=O)/C=C/c1ccc2c(c1)S(=O)(=O)N(Cc1ccc(OC)cc1)[C@H]2CC(=O)OCC,> 100 µM (inactive),< 4.00,> 100 µM,> 100 µM,–
Cc1ccc(-n2ncc3c(=O)n(CC#N)cnc32)cc1C,–,4.29,> 100 µM,> 100 µM,4.68
COc1ccc(-c2cc3nc(C)cc(N4CC(C)CC(C)C4)n3n2)cc1 (configuration not stated),> 100 µM (inactive),< 4.00,> 100 µM,> 100 µM,–
C/C(=N\NC(N)=S)c1ccc(-n2ccnc2)cc1,–,< 4.00,> 100 µM,> 100 µM,5.18
O=C1COc2ccc(C(=O)/C=C/c3ccccc3)cc2N1,–,4.59,> 50 µM,12.2 µM,5.01
CCNC(=O)CCn1nc(-c2ccc(Cl)cc2)c2ccccc2c1=O,–,< 4.00,> 100 µM,> 100 µM,4.63
CC1(c2ccc([N+](=O)[O-])cc2)NC(=O)N(CC(=O)c2ccc3c(c2)OCO3)C1=O (configuration not stated),> 100 µM (inactive),< 4.00,> 100 µM,> 100 µM,–
Cc1ccc(SCCNC(=O)c2ccc(C)c([N+](=O)[O-])c2)cc1,49.6 µM (inactive),< 4.00,> 100 µM,54 µM,–
O=C(CCS(=O)(=O)c1ccc(F)cc1)Nc1nnc(-c2cccs2)o1,–,4.33,> 100 µM,> 100 µM,5.53
CSc1ccc(CCNC(=O)c2cc(C)nn2-c2ccccc2)cc1,> 100 µM (inactive),< 4.00,> 100 µM,> 100 µM,–
N=C1C(c2nc3ccccc3[nH]2)=C(O)CN1c1ccc(F)cc1,–,< 4.00,> 100 µM,> 100 µM,5.11
CN1CCN(c2ccccc2NC(=O)c2ccc(-c3ccc(Cl)c(Cl)c3)o2)CC1,–,4.50,> 100 µM,> 100 µM,5.13
S=c1nccc(-c2ccc3c(c2)CCO3)[nH]1,> 100 µM (inactive),< 4.00,> 100 µM,> 100 µM,–
O=C(Nc1nnc(-c2ccccc2SCc2ccccc2F)s1)Nc1ccccc1F,> 100 µM (inactive),< 4.00,> 100 µM,> 100 µM,–
CC(=O)c1sc(N/N=C\c2ccc(N(C)C)cc2)nc1C,49.9 µM (inactive),< 4.00,> 100 µM,> 100 µM,–
Cc1cc(C(=O)CN2C(=O)NC(C)(CC(C)C)C2=O)c(C)n1-c1ccc2c(c1)OCO2 (configuration not stated),70 µM (inactive),4.13,99.9 µM,96.4 µM,–

SMILES,IC50,pIC50 [1],IC90 [2],IC90 [3],pIC50
COc1cccc(/C=C/c2[nH]c(=O)[nH]c(=O)c2[N+](=O)[O-])c1O,–,4.62,26.6 µM,15.9 µM,5.03
CN(C)S(=O)(=O)n1cc(/C=C(\NC(=O)c2ccccc2)C(=O)NCCN2CCOCC2)c2ccccc21,> 100 µM (inactive),< 4.00,> 100 µM,> 100 µM,–
CC(=O)[C@@]1(O)CC[C@H]2[C@@H]3C[C@H](C)C4=CC(=O)CC[C@]4(C)[C@H]3CC[C@@]21C,> 100 µM (inactive),< 4.00,> 100 µM,> 100 µM,–
Cc1ccc(S(=O)(=O)Nc2cccc3cccnc23)c([N+](=O)[O-])c1,–,5.04,12.4 µM,4.7 µM,5.96
CCOC(=O)c1sc(NC(=O)Cn2nnc3sc4c(c3c2=O)CCC(C(C)(C)C)C4)nc1C (configuration not stated),93.7 µM (inactive),< 4.00,> 100 µM,> 100 µM,–
Cc1nn(CCc2nn[nH]n2)c2nc(-c3ccc(C4CCCCC4)cc3)cc(C(F)(F)F)c12,–,4.60,50 µM,> 100 µM,5.06
C/C(=N\NC(=O)c1cc(Br)ccc1O)c1ccccn1,–,4.02,> 100 µM,> 100 µM,5.41
Cc1cc(NC(=O)COc2nnc(-c3ccccc3)c3ccccc23)no1,–,< 4.00,> 100 µM,> 25 µM,4.85
CC(C)C(=O)Nc1ccc(NC(=S)NC(=O)c2ccc([N+](=O)[O-])cc2)cc1,> 100 µM (inactive),< 4.00,> 100 µM,> 100 µM,–
Cc1cccc(NC(=O)c2nc[nH]c2C(=O)N[C@@H](CC(C)C)C(=O)OCc2ccccc2)c1,–,4.58,51.8 µM,> 100 µM,5.03
COc1ccc(/C=N/Nc2nc(-c3ccc(C)cc3)c(NC(C)=O)s2)cc1OC,> 100 µM (inactive),< 4.00,> 100 µM,> 100 µM,–
C=C(C)C(=O)O[C@H]1C/C(C)=C\C(=O)/C=C(\C)[C@H](O)[C@@H]2OC(=O)C(=C)[C@@H]21,–,4.39,56 µM,31.3 µM,4.99
Cc1c(-c2ccncc2)oc2ccc(Br)cc2c1=O,> 100 µM (inactive),< 4.00,> 100 µM,> 100 µM,–
COc1cc2c(cc1OC)C(c1ccccc1)CC2=O (configuration not stated),43.3 µM (inactive),4.03,> 100 µM,> 100 µM,–
CCCn1nc(NC(=O)c2ccco2)c2cc3cc(C)ccc3nc21,> 100 µM (inactive),< 4.00,> 100 µM,> 100 µM,–
O=C(C1=C[C@H](c2ccc(Br)cc2)C[C@H](OCc2ccc(CO)cc2)O1)N1CCN(Cc2ccc3c(c2)OCO3)CC1,50.4 µM (inactive),< 4.00,> 100 µM,> 100 µM,–
CCOc1nnnc2c1sc1nc(N3CCOCC3)c3c(c12)CCCC3,> 100 µM (inactive),< 4.00,> 100 µM,> 100 µM,–
C/C(=N\NC(=S)Nc1ccccc1C)c1ccc(O)cc1,–,4.67,24.7 µM,7.97 µM,6.26

# From PubChem BioAssay AID434987 (Southern Research Specialized Biocontainment Screening …, 2010)
